System: C57BL/6 mice
Assay: Conditioned place aversion (CPA) after naloxone-precipitated withdrawal
Assay type: in vivo
Details: for CPA: 0.1 mg/kg i.p. as printed
From the text: Adult male C57BL/6 mice (7-14 weeks old) were used for conditioned place aversion experiments (CPA). Animals were group housed under reverse light-dark cycle with ad libitum access to food and water and were randomly allocated to different test groups. All procedures were approved by the University of Calgary and Washington University Animal Care Committees and are in accordance with the guidelines of the Canadian Council on Animal Care and the US National Institutes of Health Guide for the Care of Use of Laboratory Animals.
Place conditioning was performed in a custom-built clear plexiglass apparatus (28×28×19 cm) divided into two conditioning chambers distinct in tactile and visual cues. All locomotor behaviours were recorded using monochrome GigE cameras and quantified offline using EthoVision XT 11 software (Noldus). The CPA score was calculated by subtracting time spent in the conditioned chamber during baseline (pre-test) from time spent in the same chamber postconditioning. Mice were placed in a two-chamber conditioning apparatus and allowed free access to both chambers for 15 min to assess baseline preference. Mice were treated with escalating doses of morphine, control animals received equivalent volumes of 0.9% sterile saline. Two hours after the final morphine or saline injection on day 5, mice were injected with naloxone and confined to one side of the conditioning apparatus for 30 min. The conditioned place aversion (CPA) test occurred 1 and 7 days post-conditioning, where mice were allowed free access to the conditioning apparatus for 15 min. […]
Unpaired t tests were applied to compare differences between two groups, one-way ANOVA with Bonferroni post hoc tests were applied to compare differences between three or more groups. […] All data are expressed as mean±SEM. […] After assessing the normality of sample data using Shapiro-Wilk test, statistical significance was determined by two-way repeated-measures ANOVA followed by two-tailed Sidak post hoc test. All data were presented as mean±SEM and analyzed using GraphPad Prism 9 (GraphPad Software, Inc., California).

Compound: CCCN(CCC)S(=O)(=O)c1ccc(C(O)(C(F)(F)F)C(F)(F)F)cc1 [Compound 1, 4-(1,1,1,3,3,3-hexafluoro-2-hydroxypropan-2-yl)-N,N-dipropylbenzenesulfonamide]
- CPA (1 day after naloxone-precipitated withdrawal): significantly less CPA
- CPA (1 day and 7 days after naloxone-precipitated withdrawal): significantly less CPA
- CPA score (aversion to the naloxone-paired chamber) (0.5 mg/kg i.p., morphine-dependent mice, vs vehicle): significant reduction in aversion
